Measurements reported in patent US20220031684A1, “PROPHYLACTIC EFFICACY OF SEROTONIN 4 RECEPTOR AGONISTS AGAINST STRESS” (THE TRUSTEES OF COLUMBIA UNIVERSITY IN THE CITY OF NEW YORK, priority 2019, published 2022).

Tests used:
CA3 pyramidal cells = assay: Whole-cell voltage clamp recordings of spontaneous EPSCs in CA3 slices; format: cell-based, mice
Experimental: (§1) This chronic CORT elevation dysregulates the hypothalamic-pituitary-adrenal axis (HPA) in a manner similar to that observed in clinical depression. The dose and duration of CORT treatment was selected based on previous studies. CORT (35 μg/ml, equivalent to about 5 mg/kg/day) dissolved in 0.45% hydroxypropyl-o-cyclodextrin (0-CD) or vehicle (VEH) (0.45% j-CD) was available ad libitum in the drinking water in opaque bottles to protect it from light. VEH- and CORT-treated water was changed every 3 days to prevent possible degradation. Contextual Fear Conditioning (CFC): A 3-shock CFC procedure was administered as previously published. Briefly, mice were placed into context A and administered 3 2-s shocks (0.75 mA) at 180 s, 240 s or 300 s following placement into context A. Mice were removed from the context 15 s following the termination of shock (at 317 s). For context retrieval, mice were placed back into context A for 300 s. Electrophysiology: Electrophysiology was conducted as previously described. Statistical Analysis: Results from data analyses are expressed as means±SEM. Alpha was set to 0.05 for all analyses. Data were analyzed using GraphPad Prism v7.0 or v8.0. For all experiments, unless otherwise noted, one- or two-way ANOVAs with repeated-measures were applied to the data as appropriate. Significant main effects and/or interactions were followed by Fisher's PLSD post hoc analysis or unpaired t-tests. Drugs: All drugs were prepared in physiological saline and all injections were administered intraperitoneally (i.p.) in volumes of 0.1 cc per […] body weight unless otherwise noted. Fluoxetine hydrochloride (Flx): Flx (BioTrend Chemicals AG, BG197, Zurich, Germany) was administered in the drinking water (18 mg/kg/day) for 3 weeks before the start of CORT. […] (R,S)-ketamine (K): (R,S)-ketamine (Ketaset III, Ketamine HCl injection, Fort Dodge Animal Health, Fort Dodge, Iowa) was administered in a single dose at 30 mg/kg of body weight 1 week before the start of CFC. […] PF-04995274: PF-04995274 (Sigma, Catalog No. 1331782-27-4, St. Louis, Mo.) was administered a single dose at 3 or 10 mg/kg of body weight 1 week before the start of CFC. PF-04995274 was dissolved in saline using an ultrasonic homogenizer (BioLogics, Model 3000, Manassas, Va.). Osmotic minipump implantation: ALZET osmotic minipumps (Model 2004, […], 28 days) were implanted subcutaneously under isoflurane anesthesia as previously described [S2]. Osmotic minipumps were rotated under the skin two to three times per week. Behavioral Assays: All experiments were approved by the Institutional Animal Care and Use Committee (IACUC) at the New York Psychiatric Institute (NYSPI). Elevated Plus Maze (EPM): Testing was performed as previously described [S3]. Briefly, the maze is a plus-cross-shaped apparatus consisting of four arms, two open and two enclosed by walls, linked by a central platform at a height of 50 cm from the floor. Mice were individually placed in the center of the maze facing an open arm and were allowed to explore the maze for 5 min. The time spent in and the number of entries into the open arms was used as an anxiety index. Videos were scored using ANY-maze behavior tracking software (Stoelting, Wood Dale, Ill.). Novelty-Suppressed Feeding: The NSF is a conflict test that elicits competing motivations: the drive to eat and the fear of venturing into the center of a brightly lit arena. The latency to feed is used as an index of anxiety-like behavior, because classical anxiolytic drugs decrease this measure. The NSF test was carried out during an 8 min period as previously described [S3]. Briefly, the testing apparatus consisted of a plastic box (50×50×20 cm), the floor of which was covered with approximately 2 cm of bedding. For 129S6/SvEv experiments, mice were food restricted for 12 h. For the C57BL/6N experiments, mice were food restricted for 24 h. […]

129S6/SvEv mice [1] = assay: Forced swim test (FST) after CFC; format: in vivo
Experimental: as §1

129S6/SvEv mice [2] = assay: 3-shock contextual fear conditioning (CFC); format: in vivo
Experimental: as §1

[3] = FIG. 4 cohort, Male, FIG. 4F, RMANOVA, Fisher's LSD
[4] = FIG. 4 cohort, Male, FIG. 4G, ANOVA, Fisher's LSD
[5] = (R,S)-ketamine 30 mg/kg or prucalopride 3 mg/kg injected 1 week before slicing
[6] = FIG. 4 cohort, Male, FIG. 4C, RMANOVA, Fisher's LSD
[7] = FIG. 4 cohort, Male, FIG. 4D, ANOVA, Fisher's LSD

NS(=O)(=O)c1cccc2c1c([N+](=O)[O-])cc1nc(O)c(O)nc12 [NBQX, 2,3-dihydroxy-6-nitro-7-sulfamoyl-benzo[f]quinoxaline]
large bursts of EPSCs in saline-treated mice (CA3 pyramidal cells; NBQX 20 μM added to bath): completely blocked

CNC1(c2ccccc2Cl)CCCCC1=O (racemic) [(R,S)-ketamine]
p, FST Day 2 Immobility Time (sec), (R,S)-ketamine (30 mg/kg) vs. PF04995274 (3 mg/kg) (129S6/SvEv mice [1]; [3]): 0.4094 | p, FST Day 2 Immobility Time (sec), (R,S)-ketamine (30 mg/kg) vs. PF04995274 (10 mg/kg) (129S6/SvEv mice [1]; [3]): 0.3813 | p, FST Day 2 Immobility Time (sec), (R,S)-ketamine (30 mg/kg) vs. Prucalopride (3 mg/kg) (129S6/SvEv mice [1]; [3]): 0.8332 | p, FST Day 2 Immobility Time (sec), (R,S)-ketamine (30 mg/kg) vs. Prucalopride (10 mg/kg) (129S6/SvEv mice [1]; [3]): 0.1712 | p, FST Day 2 Immobility Time (sec), Saline vs. (R,S)-ketamine (30 mg/kg) (129S6/SvEv mice [1]; [3]): 0.0218 | p, FST Day 2 Immobility Time (min 3-6) (sec), (R,S)-ketamine (30 mg/kg) vs. PF04995274 (3 mg/kg) (129S6/SvEv mice [1]; [4]): 0.5815 | p, FST Day 2 Immobility Time (min 3-6) (sec), (R,S)-ketamine (30 mg/kg) vs. PF04995274 (10 mg/kg) (129S6/SvEv mice [1]; [4]): 0.3207 | p, FST Day 2 Immobility Time (min 3-6) (sec), (R,S)-ketamine (30 mg/kg) vs. Prucalopride (3 mg/kg) (129S6/SvEv mice [1]; [4]): 0.8478 | p, FST Day 2 Immobility Time (min 3-6) (sec), (R,S)-ketamine (30 mg/kg) vs. Prucalopride (10 mg/kg) (129S6/SvEv mice [1]; [4]): 0.1763 | p, FST Day 2 Immobility Time (min 3-6) (sec), Saline vs. (R,S)-ketamine (30 mg/kg) (129S6/SvEv mice [1]; [4]): 0.0330 | immobility, FST day 1 (129S6/SvEv mice [1]; male 129S6/SvEv, (R,S)-ketamine 30, prucalopride 3 or 10, PF-04995274 3 or 10 mg/kg): comparable levels of immobility | immobility time, FST day 2 vs saline (129S6/SvEv mice [1]; male 129S6/SvEv, single injection 1 week before CFC, 30 mg/kg): decreased immobility time | average EPSC amplitude vs saline (CA3 pyramidal cells; [5]): no differences | large AMPA receptor-mediated bursts of EPSCs (CA3 pyramidal cells; [5]): not present | number of EPSCs vs saline (CA3 pyramidal cells; [5]): no differences | p, CFC Re-exposure Freezing (%), (R,S)-ketamine (30 mg/kg) vs. PF04995274 (3 mg/kg) (129S6/SvEv mice [2]; [6]): 0.1027 | p, CFC Re-exposure Freezing (%), (R,S)-ketamine (30 mg/kg) vs. PF04995274 (10 mg/kg) (129S6/SvEv mice [2]; [6]): 0.8015 | p, CFC Re-exposure Freezing (%), (R,S)-ketamine (30 mg/kg) vs. Prucalopride (3 mg/kg) (129S6/SvEv mice [2]; [6]): 0.1343 | p, CFC Re-exposure Freezing (%), (R,S)-ketamine (30 mg/kg) vs. Prucalopride (10 mg/kg) (129S6/SvEv mice [2]; [6]): 0.1023 | p, CFC Re-exposure Freezing (%), Saline vs. (R,S)-ketamine (129S6/SvEv mice [2]; [6]): 0.0448 | p, CFC Re-exposure, (R,S)-ketamine (30 mg/kg) vs. PF04995274 (3 mg/kg) (129S6/SvEv mice [2]; [7]): 0.1027 | p, CFC Re-exposure, (R,S)-ketamine (30 mg/kg) vs. PF04995274 (10 mg/kg) (129S6/SvEv mice [2]; [7]): 0.8015 | p, CFC Re-exposure, (R,S)-ketamine (30 mg/kg) vs. Prucalopride (3 mg/kg) (129S6/SvEv mice [2]; [7]): 0.1343 | p, CFC Re-exposure, (R,S)-ketamine (30 mg/kg) vs. Prucalopride (10 mg/kg) (129S6/SvEv mice [2]; [7]): 0.1023 | p, CFC Re-exposure, Saline vs. (R,S)-ketamine (129S6/SvEv mice [2]; [7]): 0.0448 | freezing during CFC training (129S6/SvEv mice [2]; male 129S6/SvEv, (R,S)-ketamine 30, prucalopride 3 or 10, PF-04995274 3 or 10 mg/kg, 1 week before CFC, vs saline): comparable levels of freezing | freezing at re-exposure to the training context (learned fear) vs saline (129S6/SvEv mice [2]; male 129S6/SvEv, single i.p. injection 1 week before CFC, re-exposure 5 days later, 30 mg/kg): attenuated learned fear
